Each cell line was assayed with O=C(/C=C/c1cccnc1)NCCCCC1CCN(C(=O)c2ccccc2)CC1 [Daporinad] + C[C@]1(O)C[C@@H](c2nc(-c3ccc4ccc(-c5ccccc5)nc4c3)c3c(N)nccn32)C1 [Linsitinib] (partner 1 µM) (assay: relative viability (nuclei count vs DMSO), 5 days (fraction); higher = more cells survive). Details: first compound 0.0005 µM.
Method in brief: (§1)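 One day after seeding in 1536-well plates, lung cancer cell lines were dosed by pin tool. Dosing was either single-drug or a fixed anchor-drug dose plus five library-drug doses (not always all listed) in √10 steps. After 5 days, nuclei were stained in one fix-and-stain step and counted on 4× images, and relative viability is the nuclei count of treated wells over that of vehicle wells, given as the median of duplicate plates.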

Cell Line	relative viability
NCI-H838	1.17
EBC-1	0.747
NCI-H1703	0.77
NCI-H1993	0.703
NCI-H441	0.533
PC-14	1.03
LCLC-103H	1.01
NCI-H596	1.06
NCI-H2126	0.686
EMC-BAC-2	0.904
NCI-H2085	0.907
Calu-6	0.841
HCC-366	0.687
NCI-H1666	0.834
NCI-H647	1.06
LK-2	0.665
NCI-H2087	0.991
NCI-H358	0.64
H3255	0.913

Cell Line	relative viability
COR-L23	0.964
COR-L 105	0.927
IA-LM	0.531
LOU-NH91	0.854
NCI-H1793	0.697
NCI-H2405	0.987
HCC-44	0.655
A549	0.535
SK-MES-1	1.1
LU99A	0.497
BEN	0.923
HARA	0.949
HCC-78	0.541
NCI-H322M	0.995
LCLC-97TM1	0.204
NCI-H1299	0.986
NCI-H1563	1.29
ABC-1	0.887

Same assay, conditions: first compound 0.001581 µM

Cell Line	relative viability
NCI-H838	1.14
EBC-1	1.21
NCI-H1703	1.27
NCI-H1993	0.715
NCI-H441	0.473
PC-14	1.04
LCLC-103H	1.2
NCI-H596	1.15
NCI-H2126	0.75
EMC-BAC-2	0.797
NCI-H2085	0.959
Calu-6	1.03
HCC-366	0.753
NCI-H1666	0.764
NCI-H647	1.07
LK-2	0.648
NCI-H2087	0.908
NCI-H358	0.822
H3255	0.951

Cell Line	relative viability
COR-L23	0.959
COR-L 105	1.07
IA-LM	0.866
LOU-NH91	1.04
NCI-H1793	0.853
NCI-H2405	1.06
HOP-62	0.893
HCC-44	0.635
A549	0.604
SK-MES-1	1.13
LU99A	0.55
BEN	0.938
HARA	0.937
HCC-78	0.619
NCI-H322M	1.03
LCLC-97TM1	0.235
NCI-H1299	1.14
NCI-H1563	1.21
ABC-1	1.04

Same assay, conditions: first compound 0.005 µM

Cell Line	relative viability
NCI-H838	0.832
EBC-1	0.801
NCI-H1703	0.996
NCI-H1993	0.782
NCI-H441	0.605
PC-14	0.884
LCLC-103H	1.16
NCI-H596	1.19
NCI-H2126	0.719
EMC-BAC-2	0.802
NCI-H2085	0.915
Calu-6	0.926
HCC-366	0.87
NCI-H1666	0.747
NCI-H647	1.24
LK-2	0.362
NCI-H2087	0.956
NCI-H358	0.882
H3255	1.03

Cell Line	relative viability
COR-L23	0.942
COR-L 105	0.842
IA-LM	0.437
LOU-NH91	1.14
NCI-H1793	1.14
NCI-H2405	1.04
HOP-62	1.15
HCC-44	0.762
A549	0.516
SK-MES-1	1.17
LU99A	0.604
BEN	0.951
HARA	1.03
HCC-78	0.767
NCI-H322M	0.926
LCLC-97TM1	0.193
NCI-H1299	0.975
NCI-H1563	1.07
ABC-1	0.882

Same assay, conditions: first compound 0.01581 µM

Cell Line	relative viability
NCI-H838	0.558
EBC-1	1.07
NCI-H1703	0.626
NCI-H1993	0.77
NCI-H441	0.56
PC-14	0.905
LCLC-103H	1.21
NCI-H596	0.477
NCI-H2126	0.683
EMC-BAC-2	0.339
NCI-H2085	0.918
Calu-6	0.821
HCC-366	0.887
NCI-H1666	0.839
NCI-H647	0.983
LK-2	0.196
NCI-H2087	0.98
NCI-H358	0.791
H3255	1.13

Cell Line	relative viability
COR-L23	0.189
COR-L 105	1.08
IA-LM	0.553
LOU-NH91	1.52
NCI-H1793	0.926
NCI-H2405	0.611
HOP-62	0.789
HCC-44	0.714
A549	0.627
SK-MES-1	0.905
LU99A	0.572
BEN	1.22
HARA	0.188
HCC-78	0.921
NCI-H322M	0.925
LCLC-97TM1	0.17
NCI-H1299	0.941
NCI-H1563	0.739
ABC-1	0.792

The cell lines below were run with O=C(/C=C/c1cccnc1)NCCCCC1CCN(C(=O)c2ccccc2)CC1 [Daporinad] + CC(=O)Nc1cccc(-n2c(=O)n(C3CC3)c(=O)c3c(Nc4ccc(I)cc4F)n(C)c(=O)c(C)c32)c1 [Trametinib] (partner 0.02 µM) in the same assay as above. Details: first compound 0.0005 µM.
Method in brief: as §1

Cell Line	relative viability
NCI-H522	0.906
NCI-H2342	1.04
NCI-H838	0.496
NCI-H1650	0.565
NCI-H1993	0.485
NCI-H441	0.351
PC-14	0.657
LCLC-103H	0.738
NCI-H596	0.704
NCI-H2126	0.562
EMC-BAC-2	0.868
NCI-H2085	0.515
HCC-366	0.332
NCI-H1666	0.692
NCI-H647	0.456
LK-2	0.783
NCI-H2087	0.18
NCI-H358	0.135
NCI-H2170	0.789

Cell Line	relative viability
H3255	0.557
COR-L23	0.577
COR-L 105	0.445
LOU-NH91	0.797
ChaGo-K-1	0.86
NCI-H1793	0.362
NCI-H2405	0.69
HOP-62	0.453
HCC-44	1.02
SK-MES-1	0.561
LU99A	0.511
BEN	1.01
HARA	0.833
SW 900	0.668
HCC-78	0.68
NCI-H322M	0.507
LCLC-97TM1	0.188
NCI-H1648	0.469

Same assay, conditions: first compound 0.001581 µM

Cell Line	relative viability
NCI-H522	0.753
NCI-H2342	0.82
NCI-H838	0.637
NCI-H1650	0.628
NCI-H1993	0.514
NCI-H441	0.426
PC-14	0.654
LCLC-103H	0.69
NCI-H596	0.791
NCI-H2126	0.548
EMC-BAC-2	0.935
NCI-H1666	0.843
NCI-H647	0.572
LK-2	0.795
NCI-H2087	0.213
NCI-H358	0.152
NCI-H2170	0.943

Cell Line	relative viability
H3255	0.637
COR-L23	0.662
COR-L 105	0.41
LOU-NH91	0.847
ChaGo-K-1	0.914
NCI-H1793	0.453
NCI-H2405	0.664
HOP-62	0.427
HCC-44	1.15
SK-MES-1	0.524
LU99A	0.562
BEN	0.996
HARA	0.761
HCC-78	0.821
NCI-H322M	0.484
LCLC-97TM1	0.158
NCI-H1648	0.418

Same assay, conditions: first compound 0.005 µM

Cell Line	relative viability
NCI-H522	0.67
NCI-H2342	0.782
NCI-H838	0.542
NCI-H1650	0.635
NCI-H1993	0.633
NCI-H441	0.496
PC-14	0.722
LCLC-103H	0.701
NCI-H596	0.74
NCI-H2126	0.604
EMC-BAC-2	0.8
NCI-H2085	0.653
HCC-366	0.376
NCI-H1666	0.821
NCI-H647	0.603
LK-2	0.764
NCI-H2087	0.263
NCI-H358	0.15
NCI-H2170	0.84

Cell Line	relative viability
H3255	0.645
COR-L23	0.737
COR-L 105	0.496
LOU-NH91	0.922
ChaGo-K-1	0.767
NCI-H1793	0.525
NCI-H2405	0.647
HOP-62	0.484
HCC-44	1.08
SK-MES-1	0.613
LU99A	0.598
BEN	1.06
HARA	0.627
SW 900	1.03
HCC-78	0.71
NCI-H322M	0.504
LCLC-97TM1	0.189
NCI-H1648	0.417

Same assay, conditions: first compound 0.01581 µM

Cell Line	relative viability
NCI-H522	0.835
NCI-H2342	0.844
NCI-H838	0.265
NCI-H1650	0.572
NCI-H1993	0.555
NCI-H441	0.573
PC-14	0.572
LCLC-103H	0.757
NCI-H596	0.48
NCI-H2126	0.587
EMC-BAC-2	0.433
NCI-H2085	0.538
HCC-366	0.409
NCI-H1666	0.9
NCI-H647	0.672
LK-2	0.283
NCI-H2087	0.22
NCI-H358	0.18
NCI-H2170	0.948

Cell Line	relative viability
H3255	0.71
COR-L23	0.302
COR-L 105	0.469
LOU-NH91	0.941
ChaGo-K-1	0.428
NCI-H1793	0.389
NCI-H2405	0.509
HOP-62	0.422
HCC-44	1.07
SK-MES-1	0.743
LU99A	0.613
BEN	1.18
HARA	0.403
SW 900	0.663
HCC-78	1.1
NCI-H322M	0.441
LCLC-97TM1	0.177
NCI-H1648	0.447

The cell lines below were run with COc1cc(Nc2ncc(F)c(Nc3ccc4c(n3)NC(=O)C(C)(C)O4)n2)cc(OC)c1OC [R406] + Cc1nc(NC(=O)N2CCC[C@H]2C(N)=O)sc1-c1ccnc(C(C)(C)C(F)(F)F)c1 [Alpelisib] (partner 2 µM) in the same assay as above. Details: first compound 0.08 µM.
Method in brief: as §1

Cell Line	relative viability
NCI-H838	0.971
EBC-1	0.826
NCI-H1703	0.307
NCI-H1993	0.692
PC-14	0.947
LCLC-103H	0.906
NCI-H596	0.486
NCI-H2126	0.721
EMC-BAC-2	0.773
NCI-H2085	0.971
Calu-6	1.01
HCC-366	0.41
NCI-H1666	1.11
NCI-H647	0.977
LK-2	0.98
NCI-H2087	0.959
NCI-H358	0.877
NCI-H2170	0.783
H3255	0.693
COR-L23	0.725
COR-L 105	1.26

Source: the supplement of paper PMC10307832
